Results: US8313763B2, “Sustained delivery formulations of rapamycin compounds” (Tolmar Therapeutics, Inc., priority 2004, dated 2012)

What was measured:
[1] = test system: choroidal neovascularization (CNV); test: Laser-induced CNV model, fluorescein angiography evaluation of leaky CNV; type: in vivo, Long Evans rats; details: for incidence of developing leaky CNV 2 weeks after laser photocoagulation: vehicle 83%
Procedure: (§1) Thermal laser infrared light (diode laser 810 nm) at 200 mW for 0.075 seconds was delivered to the fundus of Long Evans rats using a slit lamp and a slit lamp adaptor. A total of 6 lesions with 75 μm diameter were placed in a circular pattern surrounding the optic disc on the posterior pole.
(§2) Intravitreal injection was performed immediately after laser photocoagulation. Briefly, three days prior to the injection, 0.3% Ciloxan ointment was applied to the eye once daily. At the time of injection, the eye pocket was irrigated and the conjunctiva swabbed with 1.0% Betadine solution. A 30-gauge needle connected to a 10-μL Hamilton syringe that contained 5 μL carboxymethylcellulose (CMC)-based Rapamycin suspension (0.5, 5, 10 or 40 mg/mL) or CMC vehicle alone was inserted 1 mm posterior to the corneoscleral limbus. The injection began when the bevel of the needle faced down and reached the vitreous about 1-2 mm in depth with the visual aid of a dissecting microscope. After injection, topical 0.3% Ciloxan ointment was applied to the eye once daily for 2 days.
FA was performed on the 14th day after intravitreal injection of Rapamycin. Briefly, a 25-gauge butterfly catheter was placed in the tail vein on an anesthetized animal and a Heparin-Lock solution (0.50 mL of 10,000 IU/mL Heparin Sodium with 0.95 mL 0.9% Saline) was used to fill the catheter line to maintain intravenous access. A dose of 10 mg/kg of Diofluor 10% (Fluorescein Sodium 10%) was delivered through the tail vein, followed by a flush of sterile saline to ensure full delivery of Diofluor 10%. An infusion pump (Becton-Dickinson) connected to a 60 cc syringe was used to infuse the Diofluor 10% at a constant rate of 6 mL/min (8.4-13.2 pounds per square inches) to allow for consistency in the synchronization of the fluorescein bolus injection and the angiogram acquisition. Photographs were taken with a fluorescence fundus camera at 1-10, 30, 60, 90, 180, and 300 sec after Diofluor 10% administration. The leakiness of CNV was assessed by two independent readers masked to the treatment.

[2] = test system: choroidal neovascularization (CNV); test: Laser-induced CNV model, histological evaluation (CNV area, CD31-positive cell count); type: in vivo, Long Evans rats
Procedure: as §1
as §2, with “A 30-gauge needle connected to a 10-μL Hamilton syringe that contained 5 μL carboxymethylcellulose (CMC)-based Rapamycin suspension (0.5, 5, 10 or 40 mg/mL) or CMC vehicle alone was inserted 1 mm posterior to the corneoscleral limbus.” left out
Eyes were enucleated and chorioretinal tissues that contained the CNV lesions prepared and fixed for about 18 hours in formic acid alcohol, and then replaced with 70% alcohol until the specimen was processed to wax by a standard method. Slides were stained with mouse anti rat CD31 (Chemicon, UK) by a standard immunohistochemistry protocol. This briefly consisted of removal of endogenous peroxidase enzymes with methanol and hydrogen peroxide, primary antibody as above, and the secondary donkey antibody anti mouse conjugated to biotin. Streptavidin ABC and Vector VIP substrate (Vector labs, Burlingame Calif.) were further added. Haematoxylin was used as a counterstain. Representative images before and after the center of each CNV lesion were taken using the 20× objective of an Olympus BX61 microscope fitted with a Spot RT colour camera (Diagnostic instruments, MI USA). Each image was applied to the standard image analysis macro in the software Image pro to identify the mean of lesion area for each CNV and the mean of CD31 positive cell counts (i.e. endothelial cells) within the CNV lesion area. All measurements were generated by two independent readers masked to the treatments. The data was analyzed in Excel and GraphPad Prism. The 80% correlation found between readers was deemed acceptable.

[3] = test system: Ser235/236 phosphorylation of S6 ribosomal protein (downstream target of mTOR); test: Pharmacodynamic evaluation: S6 phosphorylation in chorioretinal tissues by western blot; type: in vivo, rat
Procedure: as §2
Upon euthanasia of the animal, the eyes were cut along the equator, separating the anterior and posterior segments. The vitreous was removed and the remaining back of eye (with intact retina, choroid and sclera) was placed in a labeled Nalgene Cryotube, immediately immersed in liquid nitrogen, and stored at −80° C. until ready to use. Upon lysis, tubes containing tissue were brought to room temperature to thaw. […] Protein concentration of each sample was determined using the Pierce BCA Protein Determination Kit (Pierce, CAT #: 23225) and BSA as a standard. Samples were analyzed by SDS-PAGE, followed by western blotting. […] Bound antibodies were detected using ECL or ECL plus Western Blotting Reagents. Densitometric evaluation was performed on blots scanned by Bio-Rad Multi-Analyst Software, and analyzed in MS Excel and GraphPad Prism.
Rapamycin inhibits mTOR activity, which then down-regulates Ser235/236 phosphorylation of the downstream target of mTOR, the S6 ribosomal protein. In order to evaluate the pharmacodynamic response of intravitreally administered rapamycin in the eye, the serine phosphorylation of S6 protein extracted from chorioretinal tissues was analyzed by western blot, and standardized by the total amount of S6 protein. […]

[4] = test system: Human umbilical endothelial cells; test: VEGF-activated endothelial cell proliferation, [3H]-thymidine incorporation; type: cell-based; details: [3H]-thymidine incorporation after 48 hours
Procedure: (§3) Targeted tissue concentrations were estimated from in vitro experiments assessing the inhibitory effects of rapamycin on endothelial cell proliferation and cytokine release from immune cells. Human umbilical endothelial cells were activated with Vascular Endothelial Growth Factor (VEGF) and incubated with various concentrations of rapamycin. Cell proliferation was evaluated by quantifying [3}H-thymidine incorporation after 48 hours. […] The IC50 for the release of TNFalpha from Lipopolysaccharide and IFNgamma treated THP-1 cells (monocytic cell line) was ˜1 nM and the IC50 for the release of IFNgamma from human peripheral blood T cells stimulated with phytohemagglutanin was ˜2 nM.

[5] = test system: THP-1 cells (monocytic cell line); test: TNFalpha release from Lipopolysaccharide and IFNgamma treated THP-1 cells; type: cell-based; details: Homo sapiens
Procedure: as §3

[6] = test system: human peripheral blood T cells; test: IFNgamma release from phytohemagglutanin-stimulated T cells; type: cell-based; details: T-cell, T cells stimulated with phytohemagglutanin
Procedure: as §3

IC50 [5] [nM]	IC50 [6] [nM]	Compound	response in the rat model of laser-induced CNV ([1]; 5 μg intravitreally injected)	incidence of developing leaky CNV 2 weeks after laser photocoagulation ([1]; single intravitreal injection of 0.5 μg rapamycin in CMC) [%]	incidence of developing leaky CNV 2 weeks after laser photocoagulation ([1]; single intravitreal injection of 5 μg rapamycin in CMC) [%]	incidence of developing leaky CNV 2 weeks after laser photocoagulation ([1]; single intravitreal injection of 50 μg rapamycin in CMC) [%]	reduction in CNV area compared to the vehicle group ([2]; 0.5 μg intravitreal) [%]	reduction in CNV area compared to the vehicle group ([2]; 5 μg intravitreal) [%]	reduction in CNV area compared to the vehicle group ([2]; 50 μg intravitreal) [%]	overall reduction in the number of endothelial cells within the CNV area compared to the vehicle group ([2]; 50 μg, 5 μg and 0.5 μg intravitreal, overall)	level of phosphorylated Ser235/236 on S6 ribosomal protein, standardized by total S6 ([3]; chorioretinal tissues, day 1, 3 and 7 post-dosing, vs untreated or vehicle-injected eyes, FIG. 10)	onset of inhibitory effect on S6 phosphorylation ([3]; intravitreal, rat) [h]	duration of inhibitory effect on S6 phosphorylation ([3]; post-dosing, longest follow-up timepoint) [days]	IC50 [4] [nM]	incidence of leaky CNV at the 14-day follow-up ([1]; intravitreal dose of 200 μg, positive control) [%]	inhibition of CNV area ([2]; TA, intravitreal 200 μg)	inhibition of endothelial cell count ([2]; TA, intravitreal 200 μg) [%]
~1	~2	CO[C@H]1C[C@@H]2CC[C@@H](C)[C@@](O)(O2)C(=O)C(=O)N2CCCC[C@H]2C(=O)O[C@H]([C@H](C)C[C@@H]2CC[C@@H](O)[C@H](OC)C2)CC(=O)[C@H](C)/C=C(\C)[C@@H](O)[C@@H](OC)C(=O)[C@H](C)C[C@H](C)/C=C/C=C/C=C/1C [rapamycin, Rapamycin]	nearly a complete response	65	5	2	15	55	50	50-60%	significantly reduced	≤ 24	7	69	–	–	–
–	–	CC1(C)O[C@@H]2C[C@H]3[C@@H]4CCC5=CC(=O)C=C[C@]5(C)[C@@]4(F)[C@@H](O)C[C@]3(C)[C@]2(C(=O)CO)O1 [triamcinolone acetonide]	–	–	–	–	–	–	–	–	–	–	–	–	10	approximately 50%	~60
